Test results: patent publication US4237135A, “2-(4-Ethyl-1-piperazinyl)-4-phenylquinoline, process for preparation thereof, and composition thereof” (Dainippon Pharmaceutical Co., Ltd., priority 1978, dated 1980)

How the values were obtained:
[1] = test system: brain homovanillic acid (HVA); experiment: Effect on brain monoamine metabolites: HVA; assay type: in vivo, male Wistar strain rats; conditions: 100 mg/kg p.o.; for Brain HVA, % of control: *P<0.01
Description: Each test compound was given orally to the rats in a dose of 100 mg/kg and, 1, 3 and 6 hours later the rats were sacrificed. […] The concentrations of the monoamine metabolites were calculated in terms of ng/g wet brain tissue and expressed as % of the concentrations of controls receiving saline.

[2] = test system: spontaneous locomotor activity; experiment: Inhibitory effect on spontaneous locomotor activity; assay type: in vivo, male STD-ddY strain mice
Description: (§1) Pharmacological experiments have been done on the compound of the present invention, some known and novel analogous compounds and an antidepressant on the market, as mentioned below. In the experiments, ED50 was calculated by Litchfield-Wilcoxon method.
Male mice of STD-ddY strain, weighing 20-25 g, were used in groups of 5 mice each. Each test compound was given orally to the mice in 5 different doses, and 2 hours later the spontaneous locomotor activity of each mouse was measured for 3 minutes by means of an Animex locomotor activity meter (made by Farad Electronics). ED50 was calculated for each compound. The ED50 means the dose of test compound in which the locomotor activity was reduced to 50% of that of control group receiving saline.

[3] = test system: methamphetamine-induced locomotor activity; experiment: Anti-methamphetamine effect (inhibitory effect on methamphetamine-induced locomotor activity); assay type: in vivo, male STD-ddY strain mice
Description: as §1
Male STD-ddY strain mice, weighing 20-25 g, were used in groups of 10 mice each. Groups of mice were injected intraperitoneally with 4 mg/kg of methamphetamine, and 30 minutes later each test compound was injected intraperitoneally in 3 different doses. One hour after the injection of methamphetamine, locomotor activity of each mouse was measured for 10 minutes with an Animex locomotor activity meter.

SMILES: CCN1CCN(c2cc(-c3ccccc3)c3ccccc3n2)CC1.Cl.Cl [A, 2-(4-Ethyl-1-piperazinyl)-4-phenylquinoline dihydrochloride]
- Brain HVA concentration / dopamine turnover (in words) [1]: marked increase in brain HVA concentration
- Brain HVA, % of control ([1]; 1 hour): 193 % of control
- Brain HVA, % of control ([1]; 3 hours): 186 % of control
- Brain HVA, % of control ([1]; 6 hours): 186 % of control
- ED50 ([2]; Mus musculus, po, 2 hours after dosing, read-out: Spontan. locomotor ED50): 58.7 mg/kg
- Activity relative to chlorpromazine, spontaneous locomotor activity ([2]; fraction of chlorpromazine activity, p.o.): about 1/8
- ED50 ([3]; Mus musculus, ip, methamphetamine 4 mg/kg i.p., read-out: Anti-methamphetamine ED50): 8 mg/kg
- Activity relative to chlorpromazine, methamphetamine-induced locomotor activity ([3]; fraction of chlorpromazine activity, i.p.): about 1/8
